Results from US20260217711A1, “TRIAZOLOPYRIDINYL ETHER LINKED COMPOUNDS AS KINASE INHIBITORS” (Bristol-Myers Squibb Company, priority 2023, published 2026).

System: MLKL phosphorylation (pMLKL) in HT29-L23 cells
Experiment: MLKL Phosphorylation High-Content Assay
Assay type: cell-based
Conditions: necroptosis induced with human TNFα, SMAC mimetic and Z-VAD, 6 h, read-out: LE pMLKL HC IC50
Procedure, shortened: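 HT29-L23 cells incubated 6 h at 37° C before detection of phospho-MLKL by immunostaining with anti-phospho-MLKL antibody (1:1000 in PBS/0.1% BSA, overnight at 4° C). Readout by high-content imaging with compartmental image analysis.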

Row | SMILES | IC50 [nM]
1 | CC(O)(c1ccc(F)cc1)C(F)CCOc1cccc(-c2ccn3nc(N)nc3c2)c1F (single isomer, unassigned) [Example 90, 5-(3-(2-amino-[1,2,4]triazolo[1,5-a]pyridin-7-yl)-2-fluorophenoxy)-3-fluoro-2-(4-fluorophenyl)pentan-2-ol] | 3
2 | CC(O)(c1ccc(F)cc1)C(F)CCOc1cccc(-c2ccn3nc(N)nc3c2)c1F (single isomer, unassigned) [Example 91, 5-(3-(2-amino-[1,2,4]triazolo[1,5-a]pyridin-7-yl)-2-fluorophenoxy)-3-fluoro-2-(4-fluorophenyl)pentan-2-ol] | 0.3
3 | CC(O)(c1ccc(F)cc1)C(F)CCOc1cc(-c2ccn3nc(N)nc3c2)cc(F)c1F (single isomer, unassigned) [Example 92, 5-(5-(2-amino-[1,2,4]triazolo[1,5-a]pyridin-7-yl)-2,3-difluorophenoxy)-3-fluoro-2-(4-fluorophenyl)pentan-2-ol] | 1390
4 | CC(O)(c1ccc(F)cc1)C(F)CCOc1cc(-c2ccn3nc(N)nc3c2)cc(F)c1F (single isomer, unassigned) [Example 93, 5-(5-(2-amino-[1,2,4]triazolo[1,5-a]pyridin-7-yl)-2,3-difluorophenoxy)-3-fluoro-2-(4-fluorophenyl)pentan-2-ol] | 140
5 | CC(O)(c1ccc(F)cc1)C(F)CCOc1c(F)ccc(-c2ccn3nc(N)nc3c2)c1F (single isomer, unassigned) [Example 94, 5-(3-(2-amino-[1,2,4]triazolo[1,5-a]pyridin-7-yl)-2,6-difluorophenoxy)-3-fluoro-2-(4-fluorophenyl)pentan-2-ol] | 97
6 | CC(O)(c1ccc(F)cc1)C(F)CCOc1c(F)ccc(-c2ccn3nc(N)nc3c2)c1F (single isomer, unassigned) [Example 95, 5-(3-(2-amino-[1,2,4]triazolo[1,5-a]pyridin-7-yl)-2,6-difluorophenoxy)-3-fluoro-2-(4-fluorophenyl)pentan-2-ol] | 4
7 | CC(O)(c1ccc(F)cc1)C(F)CCOc1c(F)ccc(-c2ccn3nc(N)nc3c2)c1F (single isomer, unassigned) [Example 96, 5-(3-(2-amino-[1,2,4]triazolo[1,5-a]pyridin-7-yl)-2,6-difluorophenoxy)-3-fluoro-2-(4-fluorophenyl)pentan-2-ol] | 2
8 | CC(O)(c1ccc(F)cc1)C(F)CCOc1c(F)ccc(-c2ccn3nc(N)nc3c2)c1F (single isomer, unassigned) [Example 97, 5-(3-(2-amino-[1,2,4]triazolo[1,5-a]pyridin-7-yl)-2,6-difluorophenoxy)-3-fluoro-2-(4-fluorophenyl)pentan-2-ol] | 29
9 | Nc1nc2cc(-c3ccc(Cl)c(OCCC(F)C(O)c4ccc(F)cc4)c3F)ccn2n1 (single isomer, unassigned) [Example 98, 4-(3-(2-amino-[1,2,4]triazolo[1,5-a]pyridin-7-yl)-6-chloro-2-fluorophenoxy)-2-fluoro-1-(4-fluorophenyl)butan-1-ol] | 2
10 | Nc1nc2cc(-c3ccc(Cl)c(OCCC(F)C(O)c4ccc(F)cc4)c3F)ccn2n1 (single isomer, unassigned) [Example 99, 4-(3-(2-amino-[1,2,4]triazolo[1,5-a]pyridin-7-yl)-6-chloro-2-fluorophenoxy)-2-fluoro-1-(4-fluorophenyl)butan-1-ol] | 15
11 | Nc1nc2cc(-c3ccc(Cl)c(OCCC(F)C(O)c4ccc(F)cc4)c3F)ccn2n1 (single isomer, unassigned) [Example 100, 4-(3-(2-amino-[1,2,4]triazolo[1,5-a]pyridin-7-yl)-6-chloro-2-fluorophenoxy)-2-fluoro-1-(4-fluorophenyl)butan-1-ol] | 6
12 | Nc1nc2cc(-c3ccc(Cl)c(OCCC(F)C(O)c4ccc(F)cc4)c3F)ccn2n1 (single isomer, unassigned) [Example 101, 4-(3-(2-amino-[1,2,4]triazolo[1,5-a]pyridin-7-yl)-6-chloro-2-fluorophenoxy)-2-fluoro-1-(4-fluorophenyl)butan-1-ol] | 30
13 | Nc1nc2cc(-c3ccc(F)c(OCCC(F)C(O)c4ccc(F)cc4)c3F)ccn2n1 (single isomer, unassigned) [Example 102, 4-(3-(2-amino-[1,2,4]triazolo[1,5-a]pyridin-7-yl)-2,6-difluorophenoxy)-2-fluoro-1-(4-fluorophenyl)butan-1-ol] | 3
14 | Nc1nc2cc(-c3ccc(F)c(OCCC(F)C(O)c4ccc(F)cc4)c3F)ccn2n1 (single isomer, unassigned) [Example 103, 4-(3-(2-amino-[1,2,4]triazolo-[1,5-a]pyridin-7-yl)-2,6-difluorophenoxy)-2-fluoro-1-(4-fluorophenyl)butan-1-ol] | 1.5
15 | Nc1nc2cc(-c3ccc(F)c(OCCC(F)C(O)c4ccc(F)cc4)c3F)ccn2n1 (single isomer, unassigned) [Example 104, 4-(3-(2-amino-[1,2,4]triazolo-[1,5-a]pyridin-7-yl)-2,6-difluorophenoxy)-2-fluoro-1-(4-fluorophenyl)butan-1-ol] | 2.8
16 | Nc1nc2cc(-c3ccc(F)c(OCCC(F)C(O)c4ccc(F)cc4)c3F)ccn2n1 (single isomer, unassigned) [Example 105, 4-(3-(2-amino-[1,2,4]triazolo-[1,5-a]pyridin-7-yl)-2,6-difluorophenoxy)-2-fluoro-1-(4-fluorophenyl)butan-1-ol] | 12
17 | Cc1ccc(-c2ccn3nc(N)nc3c2)c(F)c1OCCC(F)C(O)c1ccc(F)cc1 (single isomer, unassigned) [Example 106, 4-(3-(2-amino-[1,2,4]triazolo[1,5-a]pyridin-7-yl)-2-fluoro-6-methylphenoxy)-2-fluoro-1-(4-fluorophenyl)butan-1-ol] | 3
18 | Cc1ccc(-c2ccn3nc(N)nc3c2)c(F)c1OCCC(F)C(O)c1ccc(F)cc1 (single isomer, unassigned) [Example 107, 4-(3-(2-amino-[1,2,4]triazolo[1,5-a]pyridin-7-yl)-2-fluoro-6-methylphenoxy)-2-fluoro-1-(4-fluorophenyl)butan-1-ol] | 1.2
19 | Cc1ccc(-c2ccn3nc(N)nc3c2)c(F)c1OCCC(F)C(O)c1ccc(F)cc1 (single isomer, unassigned) [Example 108, 4-(3-(2-amino-[1,2,4]triazolo[1,5-a]pyridin-7-yl)-2-fluoro-6-methylphenoxy)-2-fluoro-1-(4-fluorophenyl)butan-1-ol] | 2.4
20 | Cc1ccc(-c2ccn3nc(N)nc3c2)c(F)c1OCCC(F)C(O)c1ccc(F)cc1 (single isomer, unassigned) [Example 109, 4-(3-(2-amino-[1,2,4]triazolo[1,5-a]pyridin-7-yl)-2-fluoro-6-methylphenoxy)-2-fluoro-1-(4-fluorophenyl)butan-1-ol] | 0.1
21 | Nc1nc2cc(-c3ccc(C(F)(F)F)c(OCCC(F)C(O)c4ccc(F)cc4)c3F)ccn2n1 (single isomer, unassigned) [Example 110, 4-(3-(2-amino-[1,2,4]triazolo[1,5-a]pyridin-7-yl)-2-fluoro-6-(trifluoromethyl)phenoxy)-2-fluoro-1-(4-fluorophenyl)butan-1-ol] | 360
22 | Nc1nc2cc(-c3ccc(C(F)(F)F)c(OCCC(F)C(O)c4ccc(F)cc4)c3F)ccn2n1 (single isomer, unassigned) [Example 111, 4-(3-(2-amino-[1,2,4]triazolo[1,5-a]pyridin-7-yl)-2-fluoro-6-(trifluoromethyl)phenoxy)-2-fluoro-1-(4-fluorophenyl)butan-1-ol] | 29
23 | Nc1nc2cc(-c3ccc(C(F)(F)F)c(OCCC(F)C(O)c4ccc(F)cc4)c3F)ccn2n1 (single isomer, unassigned) [Example 112, 4-(3-(2-amino-[1,2,4]triazolo[1,5-a]pyridin-7-yl)-2-fluoro-6-(trifluoromethyl)phenoxy)-2-fluoro-1-(4-fluorophenyl)butan-1-ol] | 730
24 | Nc1nc2cc(-c3ccc(C(F)(F)F)c(OCCC(F)C(O)c4ccc(F)cc4)c3F)ccn2n1 (single isomer, unassigned) [Example 113, 4-(3-(2-amino-[1,2,4]triazolo[1,5-a]pyridin-7-yl)-2-fluoro-6-(trifluoromethyl)phenoxy)-2-fluoro-1-(4-fluorophenyl)butan-1-ol] | 220
25 | Cc1ccc(-c2ccn3nc(N)nc3c2)c(F)c1OCCC(F)C(C)(O)c1ccc(F)cc1 (single isomer, unassigned) [Example 114, 5-(3-(2-amino-[1,2,4]triazolo[1,5-a]pyridin-7-yl)-2-fluoro-6-methylphenoxy)-3-fluoro-2-(4-fluorophenyl)pentan-2-ol] | 0.1
26 | Cc1ccc(-c2ccn3nc(N)nc3c2)c(F)c1OCCC(F)C(C)(O)c1ccc(F)cc1 (single isomer, unassigned) [Example 115, 5-(3-(2-amino-[1,2,4]triazolo[1,5-a]pyridin-7-yl)-2-fluoro-6-methylphenoxy)-3-fluoro-2-(4-fluorophenyl)pentan-2-ol] | 2.6
27 | Nc1nc2cc(-c3cc(F)c(F)c(OCCC(F)C(O)c4ccc(F)cc4)c3)ccn2n1 (single isomer, unassigned) [Example 116, 4-(5-(2-amino-[1,2,4]triazolo[1,5-a]pyridin-7-yl)-2,3-difluorophenoxy)-2-fluoro-1-(4-fluorophenyl)butan-1-ol] | 55
28 | Nc1nc2cc(-c3cc(F)c(F)c(OCCC(F)C(O)c4ccc(F)cc4)c3)ccn2n1 (single isomer, unassigned) [Example 117, 4-(5-(2-amino-[1,2,4]triazolo[1,5-a]pyridin-7-yl)-2,3-difluorophenoxy)-2-fluoro-1-(4-fluorophenyl)butan-1-ol] | 580
29 | Nc1nc2cc(-c3cc(F)c(F)c(OCCC(F)C(O)c4ccc(F)cc4)c3)ccn2n1 (single isomer, unassigned) [Example 118, 4-(5-(2-amino-[1,2,4]triazolo[1,5-a]pyridin-7-yl)-2,3-difluorophenoxy)-2-fluoro-1-(4-fluorophenyl)butan-1-ol] | 1040
